{"source": "patent US7189518B2", "about": "“Soluble CD40L(CD154) as a prognostic marker of atherosclerotic diseases” (The Brigham and Women's Hospital, Inc., priority 2001, dated 2007)", "type_in_all_cases": "cell-based", "key": {"[1]": {"tested_on": "human vascular EC, SMC, and MØ", "assay": "Western blot of CD40 and CD40L protein expression in cultured human vascular cells", "details": "for Concentration required to reduce CD40/CD40L expression: higher than for cerivastatin", "description": "Viability of the cultures was determined by trypan blue (Sigma, St. Louis, Mo.) exclusion count as well as an oligonucleosome formation assay (Cell Death Detection ELISA, Boehringer Mannheim, Germany).\nCulture lysates (50 μg total protein/lane) and supernatants were separated by SDS-PAGE and blotted to polyvinylidene difluoride membranes (Bio-Rad, Hercules, Calif.) using a semi-dry blotting apparatus (3 mA/cm^2, 30 min; Bio-Rad, Hercules, Calif.). Blots were blocked and primary (mouse-anti-human CD40 or CD40L; both 1:1,000; PharMingen, San Diego, Calif.) antibodies were added in 5% defatted dry milk/PBS/0.1% Tween 20. After 1 h, blots were washed three times (PBS/0.1% Tween 20) and secondary, peroxidase-conjugated, goat-anti-mouse antibody (Jackson Immunoresearch, West Grove, Pa.) was added (1 h). Finally, blots were washed and immunoreactive proteins were visualized using the Western blot chemiluminescence system (NEN™, Boston, Mass.). Data were verified by employing anti-CD40/-CD40L antibodies from Santa Cruz (Santa Cruz, Calif.)."}, "human vascular EC and MØ": {"tested_on": "human vascular EC and MØ", "assay": "RT-PCR of CD40 and CD40L mRNA expression in cultured human vascular cells", "description": "(§1) Human vascular EC and SMC were isolated from saphenous veins and cultured as described previously.^4,26 Mononuclear phagocytes (MØ) were isolated from leukocyte concentrates by density gradient centrifugation employing Lymphocyte Separation Medium (Organon-Teknika, Durham, N.C.) and were cultured (10 days) in RPMI 1640 (BioWhittaker, Walkersville, Md.) containing 2% human serum (Sigma; St. Louis, Mo.).^26 All cell types were cultured 24 h before and during the experiment in media lacking serum. Viability of the cultures was determined by trypan blue (Sigma, St. Louis, Mo.) exclusion count as well as an oligonucleosome formation assay (Cell Death Detection ELISA, Boehringer Mannheim, Germany).\nTotal RNA isolated from cultured EC, SMC, or MØ employing RNAzol (Tel-Test; Friendswood, Tex.) was assessed for purity and yield spectrophotometrically (2100 Bioanalyzer, Agilent Technologies, Wilmington, Del.) and was reverse-transcribed (2 μg total RNA; 50 min, 42° C.) employing Superscript II Reverse Transcriptase (LifeTechnologies, Carlsbad, Calif.). PCR was performed for 35 cycles at 95° C. (120 sec), 62° C. (120 sec), and 72° C. […] PCR products were analyzed on ethidium bromide-containing 1.3% agarose gels and visualized by UV transillumination. […]"}, "[2]": {"tested_on": "human vascular EC, as well as MØ", "assay": "Flow cytometry of CD40 and CD40L cell surface expression", "description": "as §1\nHuman vascular EC, SMC, or MØ were washed with ice-cold PBS, harvested by trypsinization, and fixed (PBS/4% paraformaldehyde, 15 min). Subsequently, the cells were washed once with PBS/2% BSA before being incubated (1 h, 4° C.) with either buffer alone or FITC-conjugated control IgG, mouse-anti-human CD40, or mouse-anti-human CD40L antibody (1 μg/ml; PharMingen, San Diego, Calif.). Finally, cells were washed with PBS/2% BSA and analyzed in a Becton Dickinson FACSCAN® flow cytometer employing […]® software (Becton Dickinson; San Jose, Calif.). At least 20,000 viable cells per condition were analyzed."}}, "data": [{"smiles": "CCC(C)(C)C(=O)O[C@H]1C[C@@H](C)C=C2C=C[C@H](C)[C@H](CC[C@@H]3C[C@@H](O)CC(=O)O3)[C@H]21", "note": "[simvastatin]", "values": [{"measurement": "Concentration required to reduce CD40/CD40L expression", "setting": "[1]; Western blot", "result": 100, "unit": "nM"}]}, {"smiles": "COCc1c(C(C)C)nc(C(C)C)c(/C=C/[C@@H](O)C[C@@H](O)CC(=O)O)c1-c1ccc(F)cc1", "note": "[cerivastatin]", "values": [{"measurement": "Concentration at which the constitutive as well as IL-1β/TNFα/IFNγ-induced expression of the receptor (CD40) was diminished", "setting": "[1]; EC, Western blot", "result": "> 2", "unit": "nM"}, {"measurement": "Concentration for maximal inhibition of CD40 expression", "setting": "[1]; EC, Western blot", "result": "10 to 50", "unit": "nM"}]}, {"smiles": "CC(O)(CCO)CC(=O)O", "note": "(centres unmarked) [Mevalonate]", "values": [{"measurement": "Effect on the expression of CD40 and CD40L transcripts diminished by statins", "setting": "human vascular EC and MØ", "result": "reversed"}, {"measurement": "Effect on the expression of CD40 and CD40L diminished by statins", "setting": "[1]; protein, Western blot", "result": "reversed"}]}, {"smiles": "CC(C)c1c(C(=O)Nc2ccccc2)c(-c2ccccc2)c(-c2ccc(F)cc2)n1CC[C@@H](O)C[C@@H](O)CC(=O)O", "note": "[atorvastatin]", "values": [{"measurement": "Order of the statins by concentration needed for equal reduction in CD40/CD40L expression", "setting": "[2]", "result": "cerivastatin>simvastatin=atorvastatin"}, {"measurement": "Concentration required to reduce CD40/CD40L expression", "setting": "[1]; Western blot", "result": 100, "unit": "nM"}, {"measurement": "Constitutive as well as cytokine-induced expression of CD40 and CD40L protein and transcript", "setting": "[1]; human vascular EC, SMC, and MØ, summary in the discussion, also covers RT-PCR", "result": "significantly diminished"}]}]}
